Measurements: patent publication US20130109682A1, “CYCLIC ETHER COMPOUNDS USEFUL AS KINASE INHIBITORS” (NOVARTIS AG, priority 2010, published 2013)

Columns and labels:
KDR kinase = KDR kinase (Homo sapiens, UniProt P35968); assay: KDR kinase inhibition assay (LanthaScreen TR-FRET); assay type: biochemical; details: TR-FRET assay
Protocol: KDR Kinase Inhibition Assay
(§1) LanthaScreen™ is the detection of Time-Resolved Fluorescence Resonance Energy Transfer (TR-FRET) using lanthanide chelates to measure interactions between various binding partners. The application of TR-FRET to assay kinase activity was first described by Mathis (1995). A TR-FRET assay was used to measure KDR kinase inhibitory activity. The assay panel was run on a Biomek FX liquid handling workstations. To the assay plates containing 50 nL compound or control solutions, 4.5 μL of buffer A (50 mM TRIS-HCl pH 7.4, 2 mM DTT, 0.02% Tween 20, 0.02 mM Na3VO4, H2O nanpure) including a generic concentration of ATP (2 μM f.c.) was added per well, followed by 4.5 μL of buffer B (4 uM ATP in Buffer A) including a generic concentration of polyEAY (50 nM f.c.), KDR kinase, and divalent cations. Final concentration of kinase and cations were: [KDR kinase]=0.38 nM, [Mg]=10 mM, [Ca]=1 mM. After 1 hour of incubation the kinase reactions were stopped by the addition of 4.5 μL of stop solution D (50 mM EDTA, 20 mM TRIS-HCl pH 7.4, 0.04% NP-40) immediately followed by 4.5 μL of buffer A (50 mM TRIS-HCl pH 7.4, 2 mM DTT, 0.02% Tween 20, 0.02 mM Na3VO4, H2O nanpure) including the Tb-labeled P-20 antibody to give a total detection volume of 18 μL. After an incubation time of 45 min in the dark, the plates were transferred into the Pherastar fluorescence reader for counting. The effect of compound on the enzymatic activity was obtained from the linear progress curves and determined from one reading (end point measurement).

FGFR3 kinase = FGFR3 kinase (Homo sapiens, UniProt P22607); assay: FGFR3 kinase inhibition assay (LanthaScreen TR-FRET); assay type: biochemical
Chain of FGFR3 kinase (P22607 23-806): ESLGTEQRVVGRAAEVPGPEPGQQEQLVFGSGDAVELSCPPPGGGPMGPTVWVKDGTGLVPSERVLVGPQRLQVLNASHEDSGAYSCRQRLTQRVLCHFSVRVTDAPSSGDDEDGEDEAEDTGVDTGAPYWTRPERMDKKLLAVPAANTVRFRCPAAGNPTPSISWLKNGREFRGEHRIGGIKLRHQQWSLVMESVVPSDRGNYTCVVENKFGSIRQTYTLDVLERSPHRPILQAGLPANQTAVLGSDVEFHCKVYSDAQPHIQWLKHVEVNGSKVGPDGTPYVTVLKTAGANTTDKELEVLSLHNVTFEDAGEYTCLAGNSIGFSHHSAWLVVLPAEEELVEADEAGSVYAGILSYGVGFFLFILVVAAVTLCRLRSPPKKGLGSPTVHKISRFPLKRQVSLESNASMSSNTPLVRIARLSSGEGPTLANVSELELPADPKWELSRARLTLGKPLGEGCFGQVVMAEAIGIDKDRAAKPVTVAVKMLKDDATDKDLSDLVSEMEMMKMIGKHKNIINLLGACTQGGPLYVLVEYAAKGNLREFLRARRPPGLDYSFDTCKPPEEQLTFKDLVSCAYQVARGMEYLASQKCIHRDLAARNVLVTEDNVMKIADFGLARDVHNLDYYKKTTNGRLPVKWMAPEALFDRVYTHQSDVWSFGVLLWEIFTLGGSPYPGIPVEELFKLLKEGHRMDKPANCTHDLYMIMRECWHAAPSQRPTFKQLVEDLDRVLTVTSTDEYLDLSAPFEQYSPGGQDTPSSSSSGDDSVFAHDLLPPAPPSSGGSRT
Protocol: FGFR3 Kinase Inhibition Assay
as §1, with “FGFR3” for “KDR”, “[…]” for “nL”, “[FGFR3 kinase]=0.20” for “[KDR kinase]=0.38”, “[Mg]=3” for “[Mg]=10”, “[Mn]=3” for “[Ca]=1”

Chain of KDR kinase (P35968 20-1356): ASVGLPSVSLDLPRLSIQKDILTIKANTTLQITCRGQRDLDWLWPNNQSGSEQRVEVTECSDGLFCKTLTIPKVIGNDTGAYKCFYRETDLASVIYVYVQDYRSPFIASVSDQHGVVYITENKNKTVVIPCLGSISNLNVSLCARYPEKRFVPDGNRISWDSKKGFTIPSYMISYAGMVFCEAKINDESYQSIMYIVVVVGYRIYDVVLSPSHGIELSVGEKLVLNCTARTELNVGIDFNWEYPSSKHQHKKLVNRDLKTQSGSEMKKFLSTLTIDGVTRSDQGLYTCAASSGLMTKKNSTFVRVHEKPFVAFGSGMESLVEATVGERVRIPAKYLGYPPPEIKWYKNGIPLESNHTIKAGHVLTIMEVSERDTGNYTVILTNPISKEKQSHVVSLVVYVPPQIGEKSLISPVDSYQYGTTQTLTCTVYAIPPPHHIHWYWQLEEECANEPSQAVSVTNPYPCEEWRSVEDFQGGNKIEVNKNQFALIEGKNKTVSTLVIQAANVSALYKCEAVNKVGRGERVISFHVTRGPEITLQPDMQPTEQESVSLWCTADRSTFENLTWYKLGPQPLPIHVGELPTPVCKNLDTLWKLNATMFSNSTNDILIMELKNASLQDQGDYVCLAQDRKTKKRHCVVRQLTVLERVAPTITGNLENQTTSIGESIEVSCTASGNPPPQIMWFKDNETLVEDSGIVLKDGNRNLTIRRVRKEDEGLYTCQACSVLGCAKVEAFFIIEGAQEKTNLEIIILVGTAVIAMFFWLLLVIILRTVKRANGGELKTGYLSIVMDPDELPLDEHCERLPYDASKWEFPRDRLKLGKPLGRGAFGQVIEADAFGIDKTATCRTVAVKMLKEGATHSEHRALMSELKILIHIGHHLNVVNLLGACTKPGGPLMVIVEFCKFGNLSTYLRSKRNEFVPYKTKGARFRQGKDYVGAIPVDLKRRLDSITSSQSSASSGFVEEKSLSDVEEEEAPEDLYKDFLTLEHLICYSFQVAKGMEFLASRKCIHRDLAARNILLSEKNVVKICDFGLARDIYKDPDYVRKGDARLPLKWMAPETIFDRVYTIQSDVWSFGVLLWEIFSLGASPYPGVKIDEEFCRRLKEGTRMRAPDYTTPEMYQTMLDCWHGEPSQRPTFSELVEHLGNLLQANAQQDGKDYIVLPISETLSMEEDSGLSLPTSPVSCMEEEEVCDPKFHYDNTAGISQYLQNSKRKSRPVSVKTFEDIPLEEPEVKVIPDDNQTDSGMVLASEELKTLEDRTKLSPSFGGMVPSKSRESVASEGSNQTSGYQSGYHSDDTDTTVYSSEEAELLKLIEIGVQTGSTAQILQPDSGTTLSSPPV

| IC50 (KDR kinase) | IC50 (FGFR3 kinase) | Structure (SMILES) |
| --- | --- | --- |
| 1400 nM | 7400 nM | CC[C@]1(O)[C@H](C)O[C@H](c2ccncc2NC(=O)c2nc(-c3ccccc3)cnc2N)C[C@@H]1N [Example 189, 3-amino-N-(4-((2S,4S,5R,6S)-4-amino-5-ethyl-5-hydroxy-6-methyltetrahydro-2H-pyran-2-yl)pyridin-3-yl)-6-phenylpyrazine-2-carboxamide] |
| 1700 nM | 2400 nM | CC(C)(C)[C@@H]1O[C@H](c2ccncc2NC(=O)c2nc(-c3ccccc3)cnc2N)C[C@@H](N)[C@H]1O [Example 227, 3-amino-N-(4-((2S,4R,5R,6S)-4-amino-6-tert-butyl-5-hydroxytetrahydro-2H-pyran-2-yl)pyridin-3-yl)-6-phenylpyrazine-2-carboxamide] |
| 38 nM | 320 nM | C[C@H]1O[C@@H](c2ccncc2NC(=O)c2nc(-c3ccccc3)cnc2N)C[C@@H](N)[C@]1(C)O [Example 228, 3-amino-N-(4-((2R,4R,5S,6R)-4-amino-5-hydroxy-5,6-dimethyltetrahydro-2H-pyran-2-yl)pyridin-3-yl)-6-phenylpyrazine-2-carboxamide] |
| 790 nM | 3400 nM | C[C@@H]1O[C@H](c2ccncc2NC(=O)c2nc(-c3ccccc3)cnc2N)C[C@H](N)[C@@]1(C)O [Example 229, 3-amino-N-(4-((2S,4S,5R,6S)-4-amino-5-hydroxy-5,6-dimethyltetrahydro-2H-pyran-2-yl)pyridin-3-yl)-6-phenylpyrazine-2-carboxamide] |
| 5100 nM | > 10000 nM | CC(C)[C@@H]1O[C@H](c2ccncc2NC(=O)c2nc(-c3ccccc3)cnc2N)C[C@H](N)[C@H]1O [Example 240, 3-amino-N-(4-((2S,4S,5R,6S)-4-amino-5-hydroxy-6-isopropyltetrahydro-2H-pyran-2-yl)pyridin-3-yl)-6-phenylpyrazine-2-carboxamide] |
| 180 nM | 710 nM | CC(C)(C)[C@H]1O[C@@H](c2ccncc2NC(=O)c2nc(-c3ccccc3)cnc2N)C[C@H](N)[C@@H]1O [Example 286, 3-amino-N-(4-((2R,4S,5S,6R)-4-amino-6-tert-butyl-5-hydroxytetrahydro-2H-pyran-2-yl)pyridin-3-yl)-6-phenylpyrazine-2-carboxamide] |
| 340 nM | 1600 nM | CC(C)[C@@H]1C[C@H](N)C[C@H](c2ccncc2NC(=O)c2nc(-c3ccccc3)cnc2N)O1 [Example 291, 3-amino-N-(4-((2R,4S,6S)-4-amino-6-isopropyltetrahydro-2H-pyran-2-yl)pyridin-3-yl)-6-phenylpyrazine-2-carboxamide] |
| 4300 nM | > 10000 nM | CC(C)[C@H]1C[C@@H](N)C[C@@H](c2ccncc2NC(=O)c2nc(-c3ccccc3)cnc2N)O1 [Example 292, 3-amino-N-(4-((2S,4R,6R)-4-amino-6-isopropyltetrahydro-2H-pyran-2-yl)pyridin-3-yl)-6-phenylpyrazine-2-carboxamide] |
| 130 nM | 210 nM | CCC[C@H]1O[C@@H](c2ccncc2NC(=O)c2nc(-c3ccccc3)cnc2N)C[C@@H](O)[C@@H]1O [Example 340, 3-amino-N-(4-((2R,4R,5S,6R)-4,5-dihydroxy-6-propyltetrahydro-2H-pyran-2-yl)pyridin-3-yl)-6-phenylpyrazine-2-carboxamide] |
| 60 nM | 480 nM | Nc1ncc(-c2ccccc2)nc1C(=O)Nc1cnccc1[C@H]1C[C@@H](O)[C@H](O)[C@@H](CO)O1 [Example 341, 3-amino-N-(4-((2R,4R,5S,6R)-4,5-dihydroxy-6-(hydroxymethyl)tetrahydro-2H-pyran-2-yl)pyridin-3-yl)-6-phenylpyrazine-2-carboxamide] |
| 510 nM | 1600 nM | CC[C@@H]1O[C@H](c2ccncc2NC(=O)c2nc(-c3ccccc3)cnc2N)C[C@H](N)[C@H]1O [Example 342, 3-amino-N-(4-((2S,4S,5R,6S)-4-amino-6-ethyl-5-hydroxytetrahydro-2H-pyran-2-yl)pyridin-3-yl)-6-phenylpyrazine-2-carboxamide] |
| 13 nM | 35 nM | CC[C@H]1O[C@@H](c2ccncc2NC(=O)c2nc(-c3ccccc3)cnc2N)C[C@@H](N)[C@@H]1O [Example 343, 3-amino-N-(4-((2R,4R,5S,6R)-4-amino-6-ethyl-5-hydroxytetrahydro-2H-pyran-2-yl)pyridin-3-yl)-6-phenylpyrazine-2-carboxamide] |
| 58 nM | 440 nM | C[C@]1(O)[C@H](N)C[C@H](c2ccncc2NC(=O)c2nc(-c3ccccc3)cnc2N)O[C@@H]1C1CC1 [Example 344, 3-amino-N-(4-((2R,4R,5S,6R)-4-amino-6-cyclopropyl-5-hydroxy-5-methyltetrahydro-2H-pyran-2-yl)pyridin-3-yl)-6-phenylpyrazine-2-carboxamide] |
| 4400 nM | > 10000 nM | CC[C@@H]1O[C@H](c2ccncc2NC(=O)c2nc(-c3ccccc3)cnc2N)C[C@H](N)[C@@]1(C)O [Example 345, 3-amino-N-(4-((2S,4S,5R,6S)-4-amino-6-ethyl-5-hydroxy-5-methyltetrahydro-2H-pyran-2-yl)pyridin-3-yl)-6-phenylpyrazine-2-carboxamide] |
| 28 nM | 180 nM | Nc1ncc(-c2ccccc2)nc1C(=O)Nc1cnccc1[C@H]1C[C@@H](N)[C@H](O)[C@@H](C2CC2)O1 [Example 346, 3-amino-N-(4-((2R,4R,5S,6R)-4-amino-6-cyclopropyl-5-hydroxytetrahydro-2H-pyran-2-yl)pyridin-3-yl)-6-phenylpyrazine-2-carboxamide] |
| 3700 nM | 8800 nM | C[C@@]1(O)[C@@H](N)C[C@@H](c2ccncc2NC(=O)c2nc(-c3ccccc3)cnc2N)O[C@H]1C1CC1 [Example 347, 3-amino-N-(4-((2S,4S,5R,6S)-4-amino-6-cyclopropyl-5-hydroxy-5-methyltetrahydro-2H-pyran-2-yl)pyridin-3-yl)-6-phenylpyrazine-2-carboxamide] |
| 150 nM | 420 nM | CC[C@H]1O[C@@H](c2ccncc2NC(=O)c2nc(-c3ccccc3)cnc2N)C[C@@H](N)[C@]1(C)O [Example 348, 3-amino-N-(4-((2R,4R,5S,6R)-4-amino-6-ethyl-5-hydroxy-5-methyltetrahydro-2H-pyran-2-yl)pyridin-3-yl)-6-phenylpyrazine-2-carboxamide] |
| 2300 nM | 6900 nM | Nc1ncc(-c2ccccc2)nc1C(=O)Nc1cnccc1[C@@H]1C[C@H](N)[C@@H](O)[C@H](C2CC2)O1 [Example 349, 3-amino-N-(4-((2S,4S,5R,6S)-4-amino-6-cyclopropyl-5-hydroxytetrahydro-2H-pyran-2-yl)pyridin-3-yl)-6-phenylpyrazine-2-carboxamide] |
| 62 nM | 870 nM | CC(C)(C)[C@H]1O[C@@H](c2ccncc2NC(=O)c2nc(-c3ccccc3)cnc2N)C[C@@H](N)[C@@H]1O [Example 354, 3-amino-N-(4-((2R,4R,5S,6R)-4-amino-6-tert-butyl-5-hydroxytetrahydro-2H-pyran-2-yl)pyridin-3-yl)-6-phenylpyrazine-2-carboxamide] |
| 6400 nM | > 10000 nM | CC(C)(C)[C@@H]1O[C@H](c2ccncc2NC(=O)c2nc(-c3ccccc3)cnc2N)C[C@H](N)[C@H]1O [Example 355, 3-amino-N-(4-((2S,4S,5R,6S)-4-amino-6-tert-butyl-5-hydroxytetrahydro-2H-pyran-2-yl)pyridin-3-yl)-6-phenylpyrazine-2-carboxamide] |
| 43 nM | 220 nM | CC(C)[C@H]1O[C@@H](c2ccncc2NC(=O)c2nc(-c3ccccc3)cnc2N)C[C@@H](N)[C@@H]1O [Example 356, 3-amino-N-(4-((2R,4R,5S,6R)-4-amino-5-hydroxy-6-isopropyltetrahydro-2H-pyran-2-yl)pyridin-3-yl)-6-phenylpyrazine-2-carboxamide] |
